Here are results for two compounds from US20260083848A1, “COMBINATION OF CAR T-CELL THERAPY WITH BTK INHIBITORS AND METHODS OF USE THEREOF” (priority 2021, published 2026).

Molecules are shown by their SMILES. Entries after “also recorded” stand apart in the source; their conditions may differ.

The test system of data set [1] is CD19-expressing JeKo-1 tumor cells. Kind of data set: CART19-mediated killing of JeKo-1 tumor cells in in vitro co-culture (bioluminescence). It counts as cell-based, human. The protocol: CART19 cells and JeKo-1 tumor cells were cultured at a 1:1 ratio for 24 hours in the presence of 1 μM or 10 μM vecabrutinib. […] Control of untransduced (UTD) T cell/JeKo-1 co-culture in the presence of 1 μM or 10 μM vecabrutinib was used to determine any tumor cell killing induced by vecabrutinib in the absence of CART19 cells. The percentage of tumor cell killing was measured using bioluminescence imaging, with samples treated with D-luciferin prior to imaging. […] Control co-culture was treated with DMSO only. The percentage of tumor cell killing was measured as described above.

Data set [2] relates to CART19 cells. Kind of data set: CART19 proliferation in co-culture with irradiated JeKo-1 cells (absolute CD3+ T cell counts by flow cytometry). It counts as cell-based, human. The conditions noted are these: for toxicity to CART19 cells: in vitro, concentrations up to 10 μM. Here is the method:
CART19 proliferation in the presence of vecabrutinib was evaluated. CART19 cells were cocultured with irradiated JeKo-1 tumor cells at a 1:1 ratio for 24 hours in the presence of 1 μM or 10 μM vecabrutinib. Control co-culture was treated with DMSO vehicle only. Absolute CD3+ T cell counts were measured by flow cytometry.
CART19 cells were cocultured with irradiated JeKo-1 tumor cells at a 1:1 ratio for 24 hours in the presence of 1 μM or 10 μM. Control co-culture was treated with DMSO only. Absolute CD3+ T cell counts were measured by flow cytometry.
A general note: In flow cytometry, cells or beads pass a laser one at a time.

For data set [3], the system named is CART19 cells. Kind of data set: CART19 cell degranulation (CD107α by flow cytometry) in co-culture with irradiated JeKo-1 cells. It counts as cell-based, human. The conditions noted are these: 1 μM or 10 μM, 1:1 ratio, 4 hours; FIG. 3A. Here is the method:
CART19 cells were cocultured with irradiated JeKo-1 tumor cells at a 1:1 ratio for 4 hours in the presence of 1 μM or 10 μM vecabrutinib. […] Untransduced T cell/JeKo-1 co-culture treated with 1 μM or 10 μM vecabrutinib were used as a negative control as the non-antigen-specific T cells were not expected to undergo degranulation in the presence of JeKo-1 target cells. CD107α was used as a marker to quantify degranulation, as this marker becomes part of the cellular membrane and accessible to surface staining with CD107α-specific antibody in degranulating cells. Following coculture, cells were fixed, permeabilized, attained and analyzed for CD107 levels by flow cytometry.

Data set [4] deals with CART19 cells. The data set is described as follows: CART19 cell cytokine production in co-culture with JeKo-1 cells (38-multiplex of supernatants). As to conditions: 1 μM or 10 μM, 1:1 ratio. The format is cell-based, human. Here is the method: The effect of vecabrutinib treatment on CART19 cell cytokine production was also evaluated. CART19 cells were cocultured with irradiated JeKo-1 tumor cells at a 1:1 ratio for 3 days in the presence of 1 μM or 10 μM vecabrutinib. […] Untransduced T cell/JeKo-1 coculture treated with 1 μM or 10 μM vecabrutinib were used as a negative control as the non-antigen-specific T cells were not expected to undergo activation and cytokine production in the presence of JeKo-1 target cells. Supernatants were harvested and the levels of multiple cytokines and chemokines were analyzed with 38-multiplex (Millipore).

Data set [5] concerns JeKo-1 lymphoma xenograft. Kind of data set: JeKo-1 lymphoma xenograft mouse model with CART19 cells. The conditions noted are these: 50 mg/kg oral gavage twice daily for 4 weeks, in combination with CART19. The protocol: The impact of vecabrutinib on CART19 cell anti-tumor effects was evaluated using a JeKo-1 lymphoma xenograft mouse model. To establish the mouse model, NSG mice were inoculated with 1×10^6 luciferase^+ JeKo-1 tumor cells by intravenous injection at day −14. […] Treatment groups received either CART cells with DMSO vehicle or CART cells in combination with 50 mg/kg vecabrutinib. The control group received untransduced T cells with DMSO vehicle. Administration of vecabrutinib or vehicle commenced one day prior to CART19 administration (i.e., day −1), and was given by oral gavage. Untransduced or CART19 were infused by intravenous administration on day 0 at a dose of 1×10^6 cells per animal. Vecabrutinib and vehicle were administered by oral gavage twice daily over a period of 4 weeks. Mice were imaged weekly by IVIS to assess tumor burden. Blood samples were collected from the mice on a weekly basis and the level of circulating CART19 cells was measured by flow cytometry. Mouse weight was also measured on a weekly basis as a measure of treatment toxicity.

The subject of data set [6] is pro-inflammatory cytokines in serum. The data set is described as follows: Phase 1 clinical trial, serum cytokine panel in patients with B cell malignancies. The conditions noted are these: oral 20.5-410 mg twice daily, 4 weeks post-treatment vs pretreatment. It counts as in vivo, human. The protocol:
Human cancer patients having B cell malignancies were administered vecabrutinib in a Phase 1 clinical trial and a cytokine panel was used to evaluate cytokine levels in serum at 4 weeks following administration. Briefly, patients in the clinical trial had Chronic Lymphocytic Leukemia (CLL)/Small Lymphocytic Lymphoma (SLL) or Non Hodgkin's lymphoma (NHL) and had failed prior standard of care therapies. NHL indications included lymphoplasmacytoid lymphoma/Waldenstrom's macroglobulinemia (LPL/WM), mantle cell lymphoma (MCL), marginal zone lymphoma (MZL), diffuse large B-cell lymphoma of the activated B-cell subtype (DLBCL-ABC), and follicular lymphoma (FL). A group of 39 patients were orally administered a dose of 20.5 mg, 41 mg, 82 mg, 164 mg, 246 mg, 328 mg, or 410 mg of vecabrutinib as a capsule twice daily. Serum samples were collected from the patients prior to the start of treatment as 4-weeks post-treatment and analyzed by 38-multiplex (Millipore).

In data set [7] the target is wild-type BTK (Homo sapiens, UniProt Q06187). The conditions noted are these: Aslan, et al (2021); cited from earlier work.
For data set [8], the system named is mutant BTK. As to conditions: Aslan, et al (2021); cited from earlier work.
Data set [9] deals with CLL patients expressing BTK^C481S. As to conditions: Allan, et al (2019); cited from earlier work.

Sequence of wild-type BTK (Q06187 whole entry): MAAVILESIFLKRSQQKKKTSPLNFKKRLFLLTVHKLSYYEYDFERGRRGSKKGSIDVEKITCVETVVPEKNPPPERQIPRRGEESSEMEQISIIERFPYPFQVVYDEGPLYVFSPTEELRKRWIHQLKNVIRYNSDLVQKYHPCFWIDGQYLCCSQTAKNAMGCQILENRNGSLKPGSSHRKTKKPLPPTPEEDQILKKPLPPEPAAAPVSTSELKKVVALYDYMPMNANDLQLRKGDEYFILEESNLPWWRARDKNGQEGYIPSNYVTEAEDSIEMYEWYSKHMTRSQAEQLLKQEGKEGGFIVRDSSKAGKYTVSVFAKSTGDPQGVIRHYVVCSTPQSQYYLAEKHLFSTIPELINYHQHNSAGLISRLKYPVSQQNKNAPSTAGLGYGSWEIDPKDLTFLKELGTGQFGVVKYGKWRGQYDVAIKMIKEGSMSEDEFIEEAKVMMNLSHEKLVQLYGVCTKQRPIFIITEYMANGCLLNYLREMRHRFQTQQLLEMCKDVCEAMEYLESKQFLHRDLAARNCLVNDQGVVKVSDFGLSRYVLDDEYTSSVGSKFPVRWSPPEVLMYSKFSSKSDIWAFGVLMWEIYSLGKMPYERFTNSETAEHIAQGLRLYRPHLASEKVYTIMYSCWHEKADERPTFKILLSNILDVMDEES

Regarding `NC(=O)[C@H]1CCN(c2ncnc(N)c2F)C[C@@H]1N1CCC[C@@H](Nc2cc(Cl)cc(C(F)(F)F)c2)C1=O` [vecabrutinib, (3R,3′R,4′S)-1′-(6-amino-5-fluoropyrimidin-4-yl)-3-((3-chloro-5-(trifluoromethyl)phenyl)amino)-2-oxo-[1,3′-bipiperidine]-4′-carboxamide], in data set [1] (0.625.1 CART19 to tumor cell ratio, 24 hours, normalized to BTK inhibitor only, FIG. 1B), the “CART19-mediated killing of Jeko-1 lymphoma cells as compared to ibrutinib” value is listed as “significantly potentiated”. Moreover, the “killing of CD19-expressing JeKo-1 tumor cells” value in data set [1] (CART19:JeKo-1 1:1, 24 hours, 1 μM or 10 μM, vs DMSO control, FIG. 1A) was “significantly increased”. Moreover, the “CART proliferation compared to the DMSO control” value in data set [2] (1 μM or 10 μM, 1:1 ratio, 24 hours, FIG. 2A) is “comparable”. In data set [2] (10 μM, 1:1 ratio, 24 hours, FIG. 2A/2B), the “CART19 proliferation compared to control” value is “increased”. In addition, the “toxicity to CART19 cells” value in [2] is on record as “well-tolerated; also recorded: not toxic”. The “CART19 degranulation (CD107α)” value in data set [3] is “did not impair”. Further, the IL-6 in supernatant entry in [4] (FIG. 3B) is recorded as “downregulation”. In addition, in [4] (FIG. 3C), the IL-10 in supernatant entry is recorded as “downregulation”. For the same compound, the MIP-1β in supernatant entry in data set [4] (FIG. 3D) is “downregulation”. Also, the “antitumor activity (tumor burden by IVIS) compared to CART19 alone” value in [5] (FIG. 4A) is reported as “sustained antitumor activity”. The “CART19 proliferation (circulating CART19 cells by flow cytometry)” value in data set [5] (FIG. 4B) was “increased”. Moreover, the “serum level of IP-10” value in [6] (FIG. 6A) was “significantly decreased”. The “serum level of MIP-1β” value in data set [6] (FIG. 6B) is reported as “significantly decreased”. Moreover, the “serum level of TNFα” value in [6] (FIG. 6C) is reported as “significantly decreased”. The “inhibitory activity against wild-type BTK” value in data set [7] was “maintain inhibitory activity”. Also, in data set [8], the “inhibitory activity against mutant BTK” value was “maintain inhibitory activity”. Also, the “efficacy in CLL patients expressing BTK^C481S” value in data set [9] is listed as “has efficacy”.
As to `C=CC(=O)N1CCC[C@@H](n2nc(-c3ccc(Oc4ccccc4)cc3)c3c(N)ncnc32)C1` [ibrutinib, reference compound], the “toxicity to CART19 cells” value in [2] was “toxic; also recorded: dose-dependent toxicity”.
